{"source": "patent EP4796530A1", "about": "(Biocells (Beijing) Biotech Co., Ltd., priority 2023, dated 2025)", "key": {"NLRP3 [1]": {"molecular_target": "T1, NLRP3 (Homo sapiens, UniProt Q96P20)", "T1 sequence (Q96P20 whole entry)": "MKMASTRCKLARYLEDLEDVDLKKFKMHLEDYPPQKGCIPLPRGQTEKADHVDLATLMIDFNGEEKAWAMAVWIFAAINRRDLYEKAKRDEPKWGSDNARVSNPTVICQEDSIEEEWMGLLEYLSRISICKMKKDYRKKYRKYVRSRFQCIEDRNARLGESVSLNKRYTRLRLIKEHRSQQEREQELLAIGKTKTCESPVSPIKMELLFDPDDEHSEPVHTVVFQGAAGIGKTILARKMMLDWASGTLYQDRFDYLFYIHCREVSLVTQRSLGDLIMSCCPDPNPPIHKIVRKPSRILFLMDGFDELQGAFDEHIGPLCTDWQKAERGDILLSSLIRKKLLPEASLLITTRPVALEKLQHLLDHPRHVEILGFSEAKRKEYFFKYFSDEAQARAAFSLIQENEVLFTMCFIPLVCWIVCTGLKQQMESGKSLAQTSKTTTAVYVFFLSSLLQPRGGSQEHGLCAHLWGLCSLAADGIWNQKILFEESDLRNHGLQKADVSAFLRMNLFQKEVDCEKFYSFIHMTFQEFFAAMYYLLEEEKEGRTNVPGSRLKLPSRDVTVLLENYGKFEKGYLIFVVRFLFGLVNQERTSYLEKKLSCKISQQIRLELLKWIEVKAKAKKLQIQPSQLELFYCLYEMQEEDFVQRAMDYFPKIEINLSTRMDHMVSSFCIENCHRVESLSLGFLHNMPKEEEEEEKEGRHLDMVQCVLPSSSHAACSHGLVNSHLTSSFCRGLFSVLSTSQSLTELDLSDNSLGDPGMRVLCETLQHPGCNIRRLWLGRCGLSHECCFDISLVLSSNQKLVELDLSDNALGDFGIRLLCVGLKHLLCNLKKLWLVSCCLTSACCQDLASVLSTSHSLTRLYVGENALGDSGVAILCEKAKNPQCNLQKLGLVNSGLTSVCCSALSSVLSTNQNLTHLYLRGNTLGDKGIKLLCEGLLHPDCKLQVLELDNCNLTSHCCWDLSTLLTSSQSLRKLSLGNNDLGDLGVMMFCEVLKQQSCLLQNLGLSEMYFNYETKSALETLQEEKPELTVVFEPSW", "test": "Inhibition curves (IC50) of canonical NLRP3 activation in healthy human whole blood, IL-1β release", "format": "cell-based", "conditions": "LPS+5 µM Nig canonical activation model", "method": "10 mL of human whole blood was collected intravenously aseptically, and plated into a 96-well plate, with 198 µL per well. Then, 2 µL of 100× gradient dilutions of the example compounds at specified concentrations were added, immediately followed by the addition of 10 µL of 21 µg/mL LPS gradient dilution. 3 h later, nigericin with a working concentration of 5 µM or 1 mM ATP was added. After stimulation for 1 h, the whole blood was collected and centrifuged to collect the supernatant. IL-1β in the sample supernatant was detected by ELISA method.\nExperimental groups: a negative control group, an LPS-alone incubation control group, an LPS+Nig/ATP positive control group, and a 1 µM example compound experimental group.\n10 mL of human whole blood was collected intravenously aseptically. The anticoagulant heparin sodium was added preemptively into a 50 mL centrifuge tube. The collected whole blood was directly plated in a 96-well plate, with 198 µL per well. […] IL-1β in the sample supernatant was detected by ELISA method.\nTherefore, the relative change in the amount of IL-1β release may directly reflect NLRP3 inhibitory effect. The inhibitory effect of the compounds varies with different concentrations, and based on this, an inhibition curve can be constructed, and the inhibitory effect of the compounds were assessed by IC50."}, "NLRP3 [2]": {"molecular_target": "T1, NLRP3", "test": "Inhibition curves (IC50) of canonical NLRP3 activation (LPS+Nig) in THP-1 cells, IL-1β release", "format": "cell-based", "set-up": "host or cells: THP-1 human acute monocytic leukemia cell line, PMA-differentiated", "conditions": "THP-1 cell LPS+Nig activation model", "protocol": "Nig was purchased from Shanghai Yuanye Bio-Technology Co., Ltd., Cat. No.: S45490.\nThe cells were incubated overnight.\nTherefore, the relative change in the amount of IL-1β release may directly reflect NLRP3 inhibitory effect. The inhibitory effect of the compounds varies with different concentrations, and based on this, an inhibition curve can be constructed, and the inhibitory effects of the compounds were assessed by IC50."}, "NLRP3 [3]": {"molecular_target": "T2, NLRP3 (Mus musculus, UniProt Q8R4B8)", "T2 sequence (Q8R4B8 whole entry)": "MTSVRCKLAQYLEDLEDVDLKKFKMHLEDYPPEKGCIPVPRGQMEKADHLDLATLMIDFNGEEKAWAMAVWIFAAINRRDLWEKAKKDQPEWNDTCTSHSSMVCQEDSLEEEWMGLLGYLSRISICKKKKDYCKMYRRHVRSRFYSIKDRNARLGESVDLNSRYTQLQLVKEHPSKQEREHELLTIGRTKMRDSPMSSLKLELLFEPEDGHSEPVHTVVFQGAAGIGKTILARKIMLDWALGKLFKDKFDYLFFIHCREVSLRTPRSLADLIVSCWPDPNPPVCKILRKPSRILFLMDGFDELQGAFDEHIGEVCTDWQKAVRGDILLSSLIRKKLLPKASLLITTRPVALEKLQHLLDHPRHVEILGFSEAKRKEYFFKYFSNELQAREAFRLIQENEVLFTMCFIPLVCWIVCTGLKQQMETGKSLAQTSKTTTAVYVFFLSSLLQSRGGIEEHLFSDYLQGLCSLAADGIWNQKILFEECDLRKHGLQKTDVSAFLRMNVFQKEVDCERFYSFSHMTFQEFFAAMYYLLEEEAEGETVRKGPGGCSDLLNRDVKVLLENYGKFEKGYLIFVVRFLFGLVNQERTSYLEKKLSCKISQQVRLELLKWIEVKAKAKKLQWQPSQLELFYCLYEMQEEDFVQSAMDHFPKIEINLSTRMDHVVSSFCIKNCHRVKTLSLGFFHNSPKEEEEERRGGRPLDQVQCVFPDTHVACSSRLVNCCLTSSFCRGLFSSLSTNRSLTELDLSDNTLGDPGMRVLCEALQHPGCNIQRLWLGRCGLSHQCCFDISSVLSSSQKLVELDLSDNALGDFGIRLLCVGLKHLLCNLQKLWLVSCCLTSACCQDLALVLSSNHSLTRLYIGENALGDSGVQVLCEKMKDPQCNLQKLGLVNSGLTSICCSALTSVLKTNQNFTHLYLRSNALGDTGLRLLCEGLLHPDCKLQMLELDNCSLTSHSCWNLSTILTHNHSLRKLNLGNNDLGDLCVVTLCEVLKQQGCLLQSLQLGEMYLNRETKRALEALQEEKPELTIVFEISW", "test": "LPS-induced sepsis model in mice: serum IL-1β and survival rate", "format": "in vivo, C57BL/6 mice", "set-up": "tissue National Institutes for Food and Drug Control; host or cells: C57BL/6J mice in vivo (serum IL-1β in A7, ascites IL-1β in A8)", "conditions": "30 mg/kg intraperitoneally 1 h before 20 mg/kg LPS", "protocol": "Intraperitoneal injection of 20 mg/kg LPS can induce a septic state in C57BL/6 mice and cause a significant increase in serum IL-1β after injection. Example compounds were intraperitoneally injected preemptively to study the effects on IL-1β increase and mouse survival rate. LPS was purchased from Sigma, Cat. No. L2630; and C57BL/6J male mice aged 6-8 weeks were purchased from National Institutes for Food and Drug Control.\nExperimental groups: a sham group, a model group, and an example compound dosing group.\n30 mg/kg of example compounds were injected intraperitoneally. 1 h later, 20 mg/kg LPS was injected intraperitoneally into the model group and the example compound dosing group for modeling, and the control solvent was injected into the sham group. Serum samples were collected from a batch of mice at 2.5 h and 4 h after modeling, and the levels of IL-1β were analyzed. For another batch of mice, the survival rate of the mice was calculated after modeling."}, "NLRP3 [4]": {"molecular_target": "T2, NLRP3", "test": "MSU-induced mouse peritonitis model: IL-1β in ascites", "format": "in vivo, C57BL/6J female mice", "set-up": "tissue National Institutes for Food and Drug Control; host or cells: C57BL/6J mice in vivo (serum IL-1β in A7, ascites IL-1β in A8)", "conditions": "oral gavage; LPS 2 h later, MSU after another 2 h, ascites 30 min later", "method": "Intraperitoneal injection of LPS and monosodium urate crystals (MSU) in mice can induce the activation of NLRP3 and release of large amounts of IL-1β. […] LPS was purchased from Sigma, Cat. No. L2654. MSU was purchased from Bide Pharmatech Co., Ltd., Cat. No. BD367417. C57BL/6J female mice aged 8 weeks were purchased from National Institutes for Food and Drug Control.\nThe mice were administered the example compounds via oral gavage. […] Ascites was collected 30 min later, and then IL-1β protein detection was performed on the ascites.\nExperimental groups: a model group, and an example compound dosing group."}}, "data": [{"smiles": "CN(C)Cc1cccc(S(=O)(=O)NC(=O)Nc2c3c(cc4c2CCC4)CCC3)c1N", "note": "[Example 19, 2-amino-3-((dimethylamino)methyl)-N-((1,2,3,5,6,7-hexahydro-s-indacen-4-yl)carbamoyl)benzenesulfonamide]", "values": [{"measurement": "IC50", "setting": "NLRP3 [1]", "result": 1270, "unit": "nM"}, {"measurement": "IC50", "setting": "NLRP3 [2]", "result": 278, "unit": "nM"}, {"measurement": "mouse survival rate compared with the model group", "setting": "NLRP3 [3]", "result": "significantly improved"}, {"measurement": "survival rate compared with MCC950", "setting": "NLRP3 [3]", "result": "significantly further improved"}, {"measurement": "IL-1β level in serum compared with the model group", "setting": "NLRP3 [3]; 2.5 h after modeling", "result": "significant differences"}, {"measurement": "IL-1β level in serum compared with the model group", "setting": "NLRP3 [3]; 4 h after modeling", "result": "significant differences"}, {"measurement": "level of IL-1β in ascites compared with the model group", "setting": "NLRP3 [4]", "result": "significantly inhibited"}]}]}
